For one substance, mean histopathology score results are on record in patent US20210283064A1, “STABLE, BIOADHESIVE, AND DIFFUSION-RESTRICTIVE COACERVATE” (The Chinese University of Hong Kong, priority 2020, published 2021).

The test system of this assay is DSS-induced colitis. Put plainly: Rat model of DSS-induced colitis. Format: in vivo, SD rats. The note with it: H&E-stained colon sections, oral gavage days 1, 3, 5, sacrifice day 7.

Text: SD rats weighing around 250 g were given 4.5% DSS in drinking water for 7 days to develop acute colitis. Clinical manifestations of the colitis, such as severe rectal bleeding, watery diarrhea, and colonic edema were observed after 7 days. […] Untreated colitic SD rats were used as the negative control. All SD rats were allowed unrestricted access to water and standard laboratory diet before and after oral gavage and sacrificed on day 7 for further evaluation of colon weight and length, histological severity, IBD-associated colonic myeloperoxidase (MPO)-activity, mRNA levels of tight junction-associated proteins (ZO-1 and occludin-1) and pro-inflammatory cytokines, such as interleukin IL-1β and tumor necrosis factor (TNF) in the distal colon.

As for “dexamethasone sodium phosphate [Dex-P/PBS]”, the mean histopathology score is listed as 1.917.
